Here are results for three molecules from paper PMC10255231, “Cytotoxic, Anti-Hemolytic, and Antioxidant Activities of Ruta chalepensis L. (Rutaceae) Extract, Fractions, and Isolated Compounds” (Plants, 2023).

One experiment relates to PBMC. The experiment is described as follows: MTT cell viability assay, normal PBMC. The class given is cell-based. The settings on record: Homo sapiens, 72 h, normal cells. The text has this:
(§1) The human hepatocellular carcinoma cell line HEP-G2 (ATCC HB-8065) and the monkey kidney epithelial cell line VERO (ATCC CCL-81) were obtained from the Laboratory of Immunology and Virology in FCB at UANL (FCB-UANL), México, and cultured in DMEM, supplemented with 10% heat-inactivated FBS, 2% NaHCO3, and HEPES [57]. Murine lymphoma L5178Y-R cells (ATCC CRL-1722) and human peripheral blood mononuclear cells (PBMC) were maintained in RPMI-1640 culture medium, supplemented with 10% heat-inactivated FBS and 1% antibiotic/antimycotic solution [26]. Assays were conducted with adherent HEP-G2 and VERO cells on flat-bottom microplates and non-adherent L5178Y-R and PBMC cells were evaluated on round-bottom microplates.
(§2) Cells were cultured at 37 °C and 5% CO2 in 95% air in a humidified incubator, in the presence or absence of treatments for 72 h. After which they were incubated with MTT (0.5 mg/mL final concentration) at 37 °C in 5% CO2 for 3 h and supernatants were discarded after the incubation period. Resulting formazan crystals were dissolved in DMSO, and optical densities (OD) were measured at 540 nm, using a microplate reader (Molecular Devices Corporation in Palo Alto, CA). In addition, […] (IC50) values were determined after 72 h incubation with treatments at concentrations ranging from 7.81 µg/mL to 1000 µg/mL and ODs were measured at 570 nm on a microplate reader (Molecular Devices Corporation). The positive control consisted of 0.05 µg/mL VS and the negative control was culture medium alone. All treatments were diluted in DMSO to a final well test concentration not exceeding 0.5% (v/v). Cell viability was determined using the following Formula (2):(2) Cell viability %=OD570nmTreatment/OD570nmNegative control×100
For orientation: Tetrazolium dyes change colour on reduction, which living cells bring about.

For experiment [1], the system named is human red blood cells. Nature of the experiment: Anti-hemolytic activity test (AAPH inhibition). It counts as cell-based. The settings on record: human erythrocytes, AAPH 150 mM, PBS pH 7.4. Here is the method: The AAPH inhibition test was used to determine the anti-hemolytic activity, as previously reported. Hemolysis was induced by the AAPH radical (150 mM in PBS) as a positive control. Treatment concentrations ranged from 7.81 µg/mL to 1000 µg/mL in PBS at pH 7.4 plus AAPH. IC50 values were defined as the sample concentration needed to cause 50% hemolysis of human red blood cells. The anti-hemolytic activity was evaluated using the following Formula (5):(5) % Anti−hemolytic Activity=1−OD570nm Treatment/OD570nm Positive control×100

Experiment [2] relates to human red blood cells. The experiment is described as follows: Hemolytic activity test. The settings on record: human erythrocytes, PBS pH 7.4; for IC50: Erythrocyte. It counts as cell-based. Here is the method: The hemolytic activity was assessed using the hemolysis test at treatment concentrations ranged from 7.81 µg/mL to 1000 µg/mL in PBS at pH 7.4. IC50 values were defined as the sample concentration needed to cause 50% hemolysis of human red blood cells. The percentage of hemolysis was determined by measuring ODs at 540 nm as follows (4):(4) Hemolysis %=OD540nm Treatment/OD540nm Positive control×100

In another experiment the test system is HEP-G2 cells. Nature of the experiment: MTT cell viability assay, HEP-G2 tumor cells. It counts as cell-based. The conditions noted are these: Homo sapiens, HepG2, 72 h.
From the text: as §1, §2
To determine the selectivity index (SI) for each treatment, we divided the IC50 of […]. SI was assessed for adherent cells (non-tumor/tumor) and for non-adherent cells (non-tumor/tumor). […] SI was calculated using the following Formula (3):(3) SI=IC50 Normal Cells/IC50 Tumor Cells

A further experiment concerns L5178Y-R cells. The experiment is described as follows: MTT cell viability assay, L5178Y-R lymphoma cells. It counts as cell-based, murine. The settings on record: Mus musculus, 72 h, tumor cells.
From the text: as §1
Cells were cultured at 37 °C and 5% CO2 in 95% air in a humidified incubator, in the presence or absence of treatments for 72 h. […] Resulting formazan crystals were dissolved in DMSO, and optical densities (OD) were measured at 540 nm, using a microplate reader (Molecular Devices Corporation in Palo Alto, CA). […] Cell viability was determined using the following Formula (2):(2) Cell viability %=OD570nmTreatment/OD570nmNegative control×100
To determine the selectivity index (SI) for each treatment, we divided the IC50 of […]. SI was assessed for adherent cells (non-tumor/tumor) and for non-adherent cells (non-tumor/tumor). […]

The test system of the next experiment is VERO cells. The experiment is described as follows: MTT cell viability assay, normal VERO cells. It counts as cell-based, African green monkey. The conditions noted are these: Chlorocebus sabaeus, 72 h.
From the text: as §1, §2

Converted amounts (≈) assume the structure as drawn.

The IC50 is the midpoint of a concentration-inhibition curve. Low values mean higher potency, high ones lower potency.

For `Cn1c(-c2ccc3c(c2)OCO3)cc(=O)c2ccccc21` [GRV, Graveoline], the IC50 in the experiment on PBMC was 159 ± 30.6 µg/mL (≈ 569 µM); in the experiment on human red blood cells [2], 57.6 ± 11.3 µg/mL (≈ 206 µM); with HEP-G2 cells, 54.6 ± 3.34 µg/mL (≈ 196 µM); in the experiment on L5178Y-R cells it was < 50 µg/mL; in the experiment on VERO cells it was 179 ± 7.39 µg/mL (≈ 640 µM). Moreover, the “Anti-Hemolytic Activity IC50” value with human red blood cells [1] was “did not exhibit any anti-hemolytic activity”.
In the case of `C=CC(C)(C)c1cc2cc3ccoc3cc2oc1=O` [CHL, Chalepensin], the concentration for half-maximal inhibition (IC50) with PBMC stood at 226 ± 5.67 µg/mL (≈ 891 µM); with human red blood cells [1] (Erythrocyte), 180 ± 4.76 µg/mL (≈ 707 µM); with human red blood cells [2], 101 ± 4.2 µg/mL (≈ 397 µM); in the experiment on HEP-G2 cells it was 76.2 ± 2.85 µg/mL (≈ 300 µM); with VERO cells, 387 ± 9.24 µg/mL (≈ 1520 µM). In the experiment on human red blood cells [2], the “Hemolytic Activity IC50” value is listed as “did not show significant hemolytic activity”.
On to `C=CC(C)(C)c1cc2cc3c(cc2oc1=O)OC(C(C)(C)OC(C)=O)C3` (stereo not drawn) [RTM, Rutamarin], for which the IC50 in the experiment on PBMC is 151 ± 10.1 µg/mL (≈ 424 µM); in the experiment on human red blood cells [2] it was > 1500 µg/mL; with HEP-G2 cells, 130 ± 3.68 µg/mL (≈ 364 µM); in the experiment with VERO cells it was 430 ± 4.07 µg/mL (≈ 1210 µM). In addition, in the experiment with human red blood cells [1], the “Anti-Hemolytic Activity IC50” value is on record as “did not exhibit any anti-hemolytic activity”. In addition, the “Hemolytic Activity IC50” value in the experiment on human red blood cells [2] is reported as “did not show significant hemolytic activity”.
